From patent EP2837626A1, “Indolinone derivatives as GRK5 modulators” (Max-Planck-Gesellschaft zur Förderung der Wissenschaften …, priority 2013, dated 2015)

Assays:
full length GRK5 = biological target: T1, full length GRK5 (Homo sapiens, UniProt P34947); assay: IC50 determination of compounds inhibiting GRK5 by ADP Glo Kinase Assay technology (Promega); type: biochemical; settings: 20 nM GRK5, 18.7 µM ATP, 10 µM casein, 12 concentrations, triplicates, read-out: GRK5 IC50
T1 construct: 6/2 fold concentrated full length GRK5 (Millipore, #14-714) in reaction buffer is added to each well; purchased Millipore 14-714
T1 sequence (P34947 whole entry): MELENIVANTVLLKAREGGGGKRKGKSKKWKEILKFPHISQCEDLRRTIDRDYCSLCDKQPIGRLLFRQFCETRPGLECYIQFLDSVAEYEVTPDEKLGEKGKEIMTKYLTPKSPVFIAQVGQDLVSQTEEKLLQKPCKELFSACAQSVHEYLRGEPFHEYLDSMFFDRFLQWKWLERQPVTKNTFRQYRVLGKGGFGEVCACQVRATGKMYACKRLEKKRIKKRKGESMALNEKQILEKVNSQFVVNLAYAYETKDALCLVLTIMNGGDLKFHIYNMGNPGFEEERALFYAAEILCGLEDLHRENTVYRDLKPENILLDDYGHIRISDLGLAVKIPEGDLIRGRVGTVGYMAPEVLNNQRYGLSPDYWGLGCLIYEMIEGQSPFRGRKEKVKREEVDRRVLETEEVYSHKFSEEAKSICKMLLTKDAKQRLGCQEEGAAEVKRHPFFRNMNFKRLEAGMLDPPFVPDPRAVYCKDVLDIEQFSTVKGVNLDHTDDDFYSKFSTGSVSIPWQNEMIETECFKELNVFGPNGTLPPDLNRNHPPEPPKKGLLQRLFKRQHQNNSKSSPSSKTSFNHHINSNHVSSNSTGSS

GRK5 = biological target: T2, GRK5 (Homo sapiens, UniProt P34947); assay: IC50 determination of compounds inhibiting GRK5 by Millipore KinaseProfiler (radiometric filtration binding assay); type: biochemical; settings: 2 mg/mL casein, 40 minutes at room temperature
T2 construct: purchased Millipore
T2 sequence (P34947 whole entry): as above
Method: IC50 values are determined by a radiometric based filtration binding assay, namely Millipore KinaseProfiler™. GRK5 is incubated with 8 mM MOPS pH 7.0, 0.2 mM EDTA, 2 mg/mL casein, 10 mM MgAcetate and […] (specific activity approx. 500 cpm/pmol, concentration as required). The reaction is initiated by the addition of the MgATP mix. After incubation for 40 minutes at room temperature, the reaction is stopped by the addition of 3 % phosphoric acid solution. 10 µL of the reaction is then spotted onto a P30 filtermat and washed three times for 5 minutes in 75 mM phosphoric acid and once in methanol prior to drying and scintillation counting.

Structure (SMILES)	IC50 (full length GRK5) [µM]	IC50 (GRK5) [µM]
Cc1ccc([C@@H](C)NC(=O)c2ccc3c(c2)/C(=C/Nc2ccc(CN4CCCCC4)cc2)C(=O)N3)cc1 [Compound 72, (3Z)-N-[(1R)-1-(4-methylphenyl)ethyl]-2-oxo-3-({[4-(piperidin-1-ylmethyl)phenyl]amino}methylene)indoline-5-carboxamide]	< 5	< 5
C[C@@H](NC(=O)c1ccc2c(c1)/C(=C/Nc1ccc(CN3CCCCC3)cc1)C(=O)N2)c1ccc(Cl)cc1 [Compound 73, (3Z)-N-[(1R)-1-(4-chlorophenyl)ethyl]-2-oxo-3-({[4-(piperidin-1-ylmethyl)phenyl]amino}methylene)indoline-5-carboxamide]	< 5	< 5
